Laboratory results: PMC7419507, “In vitro Cas9-assisted editing of modular polyketide synthase genes to produce desired natural product derivatives” (Nature Communications, 2020)
Several values for one entry are separate records, joined by “and”; a condition that tells them apart may be missing. Identical values can stand only once.

What was measured:
[1] = Cytotoxicity assay (CellTiter-Glo, 72 h), Jurkat; type: cell-based; settings: human, Jurkat cells (T lymphoma), raw data (replicates); for viability at 72 h, 9.53674e-05 uM: conc 9.53674e-5 uM; for viability at 72 h, 0.000190735 uM: conc 0.000190735 uM; for viability at 72 h, 0.00038147 uM: conc 0.00038147 uM; for viability at 72 h, 0.000762939 uM: conc 0.000762939 uM; for viability at 72 h, 0.00152588 uM: conc 0.00152588 uM; for viability at 72 h, 0.00305176 uM: conc 0.00305176 uM; for viability at 72 h, 0.00610352 uM: conc 0.00610352 uM; for viability at 72 h, 0.012207 uM: conc 0.012207 uM; for viability at 72 h, 0.0244141 uM: conc 0.0244141 uM; for viability at 72 h, 0.0488281 uM: conc 0.0488281 uM; for viability at 72 h, 0.0976562 uM: conc 0.0976562 uM; for viability at 72 h, 0.195312 uM: conc 0.195312 uM; for viability at 72 h, 0.390625 uM: conc 0.390625 uM; for viability at 72 h, 0.78125 uM: conc 0.78125 uM; for viability at 72 h, 1.5625 uM: conc 1.5625 uM; for viability at 72 h, 3.125 uM: conc 3.125 uM; for viability at 72 h, 6.25 uM: conc 6.25 uM; for viability at 72 h, 12.5 uM: conc 12.5 uM; for viability at 72 h, 25 uM: conc 25 uM; for viability at 72 h, 50 uM: conc 50 uM
Summary of the method: (§1)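 Viability read by CellTiter-Glo luminescence after 72 h exposure to 2-fold compound dilutions (0.5% DMSO), added 4 h after plating 1000 cells/well.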

T lymphoma Jurkat cells = test: Cytotoxicity assay (CellTiter-Glo, 72 h), Jurkat; type: cell-based; settings: raw data (replicates)
Summary of the method: as §1

Compound: CO[C@@H]1/C=C/C=C/[C@@H](C)C[C@@H](C)C(=O)C[C@H](O)/C(C)=C/[C@@H](C)C(=O)C[C@@H]([C@H](C)C[C@@H]2CC[C@@H](O)[C@H](OC)C2)OC(=O)[C@@H]2CCCCN2C(=O)C(=O)[C@]2(O)O[C@@H](CC[C@H]2C)C1 [Compound 9]
- viability at 72 h, 9.53674e-05 uM [1]: 97.1%
- viability at 72 h, 0.000190735 uM [1]: 100%
- viability at 72 h, 0.00038147 uM [1]: 106%
- viability at 72 h, 0.000762939 uM [1]: 102%
- viability at 72 h, 0.00152588 uM [1]: 106%
- viability at 72 h, 0.00305176 uM [1]: 97.7%
- viability at 72 h, 0.00610352 uM [1]: 105%
- viability at 72 h, 0.012207 uM [1]: 92.7%
- viability at 72 h, 0.0244141 uM [1]: 93.7%
- viability at 72 h, 0.0488281 uM [1]: 86%
- viability at 72 h, 0.0976562 uM [1]: 74.9%
- viability at 72 h, 0.195312 uM [1]: 60.9%
- viability at 72 h, 0.390625 uM [1]: 51.4%
- viability at 72 h, 0.78125 uM [1]: 42.4%
- viability at 72 h, 1.5625 uM [1]: 36.2%
- viability at 72 h, 3.125 uM [1]: 29.7%
- viability at 72 h, 6.25 uM [1]: 31.2%
- viability at 72 h, 12.5 uM [1]: 29%
- viability at 72 h, 25 uM [1]: 27.4%
- viability at 72 h, 50 uM [1]: 18.3%
- Jurkat viability (%) (T lymphoma Jurkat cells; conc 9.53674e-5 uM): 97.9% and 103.8%
- Jurkat viability (%) (T lymphoma Jurkat cells; conc 0.000190735 uM): 101.0% and 98.6%
- Jurkat viability (%) (T lymphoma Jurkat cells; conc 0.00038147 uM): 107.1% and 103.4%
- Jurkat viability (%) (T lymphoma Jurkat cells; conc 0.000762939 uM): 103.5% and 104.2%
- Jurkat viability (%) (T lymphoma Jurkat cells; conc 0.00152588 uM): 104.2% and 102.7%
- Jurkat viability (%) (T lymphoma Jurkat cells; conc 0.00305176 uM): 97.4% and 96.9%
- Jurkat viability (%) (T lymphoma Jurkat cells; conc 0.00610352 uM): 101.3% and 103.8%
- Jurkat viability (%) (T lymphoma Jurkat cells; conc 0.012207 uM): 97.2% and 97.8%
- Jurkat viability (%) (T lymphoma Jurkat cells; conc 0.0244141 uM): 92.4% and 98.8%
- Jurkat viability (%) (T lymphoma Jurkat cells; conc 0.0488281 uM): 88.4% and 81.5%
- Jurkat viability (%) (T lymphoma Jurkat cells; conc 0.0976562 uM): 82.2% and 81.2%
- Jurkat viability (%) (T lymphoma Jurkat cells; conc 0.195312 uM): 57.1% and 58.0%
- Jurkat viability (%) (T lymphoma Jurkat cells; conc 0.390625 uM): 50.5% and 48.6%
- Jurkat viability (%) (T lymphoma Jurkat cells; conc 0.78125 uM): 40.3% and 41.8%
- Jurkat viability (%) (T lymphoma Jurkat cells; conc 1.5625 uM): 36.4% and 39.4%
- Jurkat viability (%) (T lymphoma Jurkat cells; conc 3.125 uM): 29.6% and 29.1%
- Jurkat viability (%) (T lymphoma Jurkat cells; conc 6.25 uM): 28.9% and 29.5%
- Jurkat viability (%) (T lymphoma Jurkat cells; conc 12.5 uM): 26.0% and 28.1%
- Jurkat viability (%) (T lymphoma Jurkat cells; conc 25 uM): 26.9% and 28.7%
- Jurkat viability (%) (T lymphoma Jurkat cells; conc 50 uM): 17.4% and 19.3%

Compound: COC1CC2CCC(C)C(O)(O2)C(=O)C(=O)N2CCCCC2C(=O)OC(C(C)CC2CCC(O)C(OC)C2)CC(O)CC(=O)C(C)C=C(C)C(O)CC(=O)C(C)CC(C)C=CC=CC=C1C (stereo not drawn) [Compound 13]
- viability at 72 h, 9.53674e-05 uM [1]: 100%
- viability at 72 h, 0.000190735 uM [1]: 100%
- viability at 72 h, 0.00038147 uM [1]: 108%
- viability at 72 h, 0.000762939 uM [1]: 103%
- viability at 72 h, 0.00152588 uM [1]: 98.1%
- viability at 72 h, 0.00305176 uM [1]: 102%
- viability at 72 h, 0.00610352 uM [1]: 100%
- viability at 72 h, 0.012207 uM [1]: 99.4%
- viability at 72 h, 0.0244141 uM [1]: 103%
- viability at 72 h, 0.0488281 uM [1]: 91.3%
- viability at 72 h, 0.0976562 uM [1]: 69.5%
- viability at 72 h, 0.195312 uM [1]: 47.2%
- viability at 72 h, 0.390625 uM [1]: 37.5%
- viability at 72 h, 0.78125 uM [1]: 31.7%
- viability at 72 h, 1.5625 uM [1]: 30.7%
- viability at 72 h, 3.125 uM [1]: 30.2%
- viability at 72 h, 6.25 uM [1]: 29.2%
- viability at 72 h, 12.5 uM [1]: 30.8%
- viability at 72 h, 25 uM [1]: 24.7%
- viability at 72 h, 50 uM [1]: 2.2%
- Jurkat viability (%) (T lymphoma Jurkat cells; conc 9.53674e-5 uM): 112.6% and 105.4%
- Jurkat viability (%) (T lymphoma Jurkat cells; conc 0.000190735 uM): 101.3% and 101.6%
- Jurkat viability (%) (T lymphoma Jurkat cells; conc 0.00038147 uM): 104.4% and 104.8%
- Jurkat viability (%) (T lymphoma Jurkat cells; conc 0.000762939 uM): 96.6% and 102.2%
- Jurkat viability (%) (T lymphoma Jurkat cells; conc 0.00152588 uM): 101.0% and 107.9%
- Jurkat viability (%) (T lymphoma Jurkat cells; conc 0.00305176 uM): 103.0% and 101.6%
- Jurkat viability (%) (T lymphoma Jurkat cells; conc 0.00610352 uM): 107.7% and 103.5%
- Jurkat viability (%) (T lymphoma Jurkat cells; conc 0.012207 uM): 102.1% and 101.9%
- Jurkat viability (%) (T lymphoma Jurkat cells; conc 0.0244141 uM): 102.7% and 105.0%
- Jurkat viability (%) (T lymphoma Jurkat cells; conc 0.0488281 uM): 92.1% and 89.3%
- Jurkat viability (%) (T lymphoma Jurkat cells; conc 0.0976562 uM): 67.5% and 74.1%
- Jurkat viability (%) (T lymphoma Jurkat cells; conc 0.195312 uM): 42.7% and 42.9%
- Jurkat viability (%) (T lymphoma Jurkat cells; conc 0.390625 uM): 37.1% and 36.6%
- Jurkat viability (%) (T lymphoma Jurkat cells; conc 0.78125 uM): 31.2% and 32.9%
- Jurkat viability (%) (T lymphoma Jurkat cells; conc 1.5625 uM): 32.3%
- Jurkat viability (%) (T lymphoma Jurkat cells; conc 3.125 uM): 28.8% and 27.1%
- Jurkat viability (%) (T lymphoma Jurkat cells; conc 6.25 uM): 32.0% and 30.5%
- Jurkat viability (%) (T lymphoma Jurkat cells; conc 12.5 uM): 29.9%
- Jurkat viability (%) (T lymphoma Jurkat cells; conc 25 uM): 25.3% and 24.9%
- Jurkat viability (%) (T lymphoma Jurkat cells; conc 50 uM): 1.7% and 1.8%

Compound: COC1CC2CCC(C)C(O)(O2)C(=O)C(=O)N2CCCCC2C(=O)OC(C(C)CC2CCC(O)C(OC)C2)CC(=O)C(C)C=C(C)C(O)CC(=O)C(C)C=C(C)C=CC=CC=C1C (stereo not drawn) [Compound 14]
- viability at 72 h, 9.53674e-05 uM [1]: 100%
- viability at 72 h, 0.000190735 uM [1]: 99.4%
- viability at 72 h, 0.00038147 uM [1]: 100%
- viability at 72 h, 0.000762939 uM [1]: 99.9%
- viability at 72 h, 0.00152588 uM [1]: 101%
- viability at 72 h, 0.00305176 uM [1]: 103%
- viability at 72 h, 0.00610352 uM [1]: 98.3%
- viability at 72 h, 0.012207 uM [1]: 100%
- viability at 72 h, 0.0244141 uM [1]: 102%
- viability at 72 h, 0.0488281 uM [1]: 101%
- viability at 72 h, 0.0976562 uM [1]: 97.1%
- viability at 72 h, 0.195312 uM [1]: 95.7%
- viability at 72 h, 0.390625 uM [1]: 94%
- viability at 72 h, 0.78125 uM [1]: 78.6%
- viability at 72 h, 1.5625 uM [1]: 66.2%
- viability at 72 h, 3.125 uM [1]: 45.1%
- viability at 72 h, 6.25 uM [1]: 45.6%
- viability at 72 h, 12.5 uM [1]: 38.2%
- viability at 72 h, 25 uM [1]: 31.3%
- viability at 72 h, 50 uM [1]: 0.9%
- Jurkat viability (%) (T lymphoma Jurkat cells; conc 9.53674e-5 uM): 99.0% and 99.6%
- Jurkat viability (%) (T lymphoma Jurkat cells; conc 0.000190735 uM): 96.4% and 106.9%
- Jurkat viability (%) (T lymphoma Jurkat cells; conc 0.00038147 uM): 106.3% and 110.1%
- Jurkat viability (%) (T lymphoma Jurkat cells; conc 0.000762939 uM): 94.3% and 106.0%
- Jurkat viability (%) (T lymphoma Jurkat cells; conc 0.00152588 uM): 101.0% and 106.0%
- Jurkat viability (%) (T lymphoma Jurkat cells; conc 0.00305176 uM): 97.8%
- Jurkat viability (%) (T lymphoma Jurkat cells; conc 0.00610352 uM): 106.2% and 106.5%
- Jurkat viability (%) (T lymphoma Jurkat cells; conc 0.012207 uM): 99.3%
- Jurkat viability (%) (T lymphoma Jurkat cells; conc 0.0244141 uM): 108.2% and 105.8%
- Jurkat viability (%) (T lymphoma Jurkat cells; conc 0.0488281 uM): 103.9% and 107.5%
- Jurkat viability (%) (T lymphoma Jurkat cells; conc 0.0976562 uM): 96.8%
- Jurkat viability (%) (T lymphoma Jurkat cells; conc 0.195312 uM): 93.3% and 90.8%
- Jurkat viability (%) (T lymphoma Jurkat cells; conc 0.390625 uM): 89.0% and 89.4%
- Jurkat viability (%) (T lymphoma Jurkat cells; conc 0.78125 uM): 77.6% and 70.2%
- Jurkat viability (%) (T lymphoma Jurkat cells; conc 1.5625 uM): 62.3% and 57.2%
- Jurkat viability (%) (T lymphoma Jurkat cells; conc 3.125 uM): 49.0% and 51.4%
- Jurkat viability (%) (T lymphoma Jurkat cells; conc 6.25 uM): 45.2% and 40.6%
- Jurkat viability (%) (T lymphoma Jurkat cells; conc 12.5 uM): 39.4% and 37.1%
- Jurkat viability (%) (T lymphoma Jurkat cells; conc 25 uM): 31.9% and 26.3%
- Jurkat viability (%) (T lymphoma Jurkat cells; conc 50 uM): 1.0% and 0.558%
